# Experimental data: PMC10299677, “Fluorinated Benzofuran and Dihydrobenzofuran as Anti-Inflammatory and Potential Anticancer Agents” (International Journal of Molecular Sciences, 2023)
# Legend:
# [1] = test system: NOS2 protein expression; test: NOS2 protein expression in LPS-treated macrophages (Western blot); format: cell-based, C57BL/6J mice; conditions: 50 µM, LPS 24 h
# Experimental: Figure 4 Effects of the fluorinated benzofuran and dihydrobenzofuran on COX-2 and NOS2 protein expressions. COX-2 and NOS2 protein expressions were assessed in macrophages incubated with only 10 µM for compounds 1, 7, and 9, and 50 µM for the other compounds, for 30 min prior to the addition of 10 ng/mL LPS for 24 h. β-actin was used as a loading control, and densitometric analysis was performed using ImageJ software (NIH, MA). Data are expressed as fold of LPS-treated macrophages and represented as mean ± SEM of 4 different experiments; * p < 0.05 versus LPS (one-way ANOVA followed by Dunnett’s test).
# Macrophages were incubated with the compounds for 30 min prior to the addition of 10 ng/mL LPS for 24 h. Protein levels for COX-2 and NOS2 were detected in LPS-stimulated macrophages. As previously described, 10 µg of total protein was assessed. The primary antibodies were developed and characterized as previously described: for COX-2, mouse monoclonal antibody anti-COX-2 (clone COX-214, 1/5000); for NOS2, rabbit polyclonal antibody anti-NOS2 (dilution1/2000 [33]). Antibodies anti-phospho-NF-κB (3033S), phospho-IκBα (9246S), and total IκBα (4814S) were from Cell Signaling Technologies (Danvers, MA, USA). Total NF-κB C-20 (sc-372) was from Santa Cruz Biotechnologies (Dallas, TX, USA), and mouse β-actin (dilution 1/10,000) (Sigma-Aldrich, A5441). Clarity™ western ECL substrate (Bio-Rad Laboratories 10-5061) was used according to the manufacturer’s instructions to reveal positive bands visualized using Bio-Rad ChemiDoc. For Bcl-2 and cleaved PARP-1, HCT116 cells were plated in 6-well plates (200,000 cells per well) for 24 h, and treated with compounds 1 and 2 at 10, 25, and 50 µM for 72 h. Supernatants and cells were collected and lysed using RIPA lysis buffer containing inhibitors of protease. Western blot of Bcl-2 and cleaved PARP-1 was performed using 25 µg of total protein with a rabbit polyclonal antibody anti-Bcl-2 (1/500) (Santa Cruz Biotechnology, sc-492), rabbit polyclonal antibody anti-PARP-1 (1/1000) (Santa Cruz Biotechnology, sc-7150), and mouse anti-β-actin (dilution 1/10,000) (Sigma-Aldrich, A5441).
# Densitometric analyses were performed using ImageJ software (NIH, MA, USA). The ratio of the different analyzed bands to β-actin was determined and data are represented as fold change compared to the LPS-treated cells. Percentage of viable cells for proliferation assay was determined as percentage to control (non-treated cells). For TUNEL assay, apoptotic cells were quantified, and results were expressed as percentage to positive cells (cleaved DNA) compared to control (non-treated cells). Statistical analysis was performed using one-way ANOVA, followed by Dunnett’s multiple comparisons test using GraphPad Prism software. […]
# [2] = test system: IL-6; test: IL-6 release in LPS-treated macrophages (BMDM); format: cell-based, C57BL/6J mice; conditions: for decrease of IL-6 production: 50 µM, LPS 24 h; for IC50: Mus musculus, Macrophage, compounds 30 min prior to 10 ng/mL LPS for 24 h
# Experimental: C57BL/6J (10–15 weeks old) male mice were obtained from the animal care facility at the American University of Beirut. All animal procedures were performed following the recommendations of the IACUC (Institutional Animal Care and Use Committee approval 16-09-M379). BMDMs were prepared and characterized as described previously by our group. BMDMs were isolated from C57BL/6J mice by flushing the femur and tibia with RPMI-1640 culture media (Sigma-Aldrich R7388), and cells were collected and centrifuged at 300× g for 5 min. The supernatant was discarded, and the pellet was resuspended in 2 mL red blood lysis 10% (Sigma-Aldrich R7767) medium in PBS and incubated for 5 min at room temperature. After diluting the suspension of cells with 5 mL of RPMI containing 10% FBS and 1% penicillin–streptomycin, cells were centrifuged at 300× g for 5 min, and the cell pellet was resuspended in RPMI media containing 10% FBS supplemented with 15% L929-conditioned medium containing macrophage-colony stimulating factor (M-CSF1) and plated on […]. Cells were allowed to proliferate and differentiate for 5–6 days. Cells were harvested, washed, and allowed to adhere overnight in RPMI containing 10% FBS for treatment. Cells were previously characterized by flow cytometry as macrophages using this method. […] Cells were plated at 0.8 × 10^6 cells per 3.8 cm^2 well [27].
# BMDMs were then treated with different concentrations of the benzofuran and dihydrobenzofuran derivatives for 30 min prior to the addition of 10 ng/mL LPS for 24 h. […] The supernatants were assessed for IL-6, PGE2, CCL2, and nitrite, the stable derivative of NO, as described previously.
# IL-6, CCL2, nitrite (for NO), and PGE2 concentrations from 3–5 independent experiments were expressed as percentage of LPS alone and as mean ± SEM. COX activity was determined as percentage of PGE2 produced from exogenous arachidonic acid. Curve fitting and calculation of IC50 values were performed using GraphPad Prism (version 9.5.1 Software, La Jolla, CA, USA).
IC50 [2],SMILES,effect on LPS-dependent NOS2 protein expression [1],decrease of IL-6 production [2]
–,C=C(C)c1ccc2oc(CC(=O)O)c(F)c2c1 [Compound 6],no effect,–
9.04 µM,COC(=O)CC1(O)Oc2ccc(Br)cc2C1(F)F (stereo not shown) [Compound 8],–,more than 50%
1.23 µM,O=C(O)/C=C1/Oc2ccc(Br)cc2C1(F)F [Compound 2],inhibition,more than 50%
5.21 µM,O=C(O)/C=C1\Oc2ccc(Br)cc2C1(F)F [Compound 3],inhibition,more than 50%
–,O=C(O)Cc1oc2ccc(-c3ccccc3)cc2c1F [Compound 5],no effect,–
